Legend:
SR cells = assay: Half inhibitory concentration (IC50) on ALK-positive SR cell proliferation (CCK-8); assay type: cell-based; conditions: Homo sapiens; SR cells, 72 h drug treatment, CCK-8; read-out: IC50 (nM)/ SR cell line
Summary of the method: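 SR cells seeded at 10,000 cells/well in RPMI1640 and treated with PROTAD compounds at 10 concentrations (top 10 μM, 5-fold dilutions) for 72 h at 37° C, 5% CO2. Viability read by CCK-8 (2 h) at OD450; DMSO as negative control.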

ALK protein = ALK protein (Homo sapiens, UniProt Q9UM73); assay: Western-blot half degradation concentration (DC50) of ALK protein in H3122 cells; assay type: cell-based; conditions: 24 h drug treatment, read-out: DC50 (nM)/ H3122 cell line
Sequence of ALK protein (Q9UM73 with tags, fused parts or gaps): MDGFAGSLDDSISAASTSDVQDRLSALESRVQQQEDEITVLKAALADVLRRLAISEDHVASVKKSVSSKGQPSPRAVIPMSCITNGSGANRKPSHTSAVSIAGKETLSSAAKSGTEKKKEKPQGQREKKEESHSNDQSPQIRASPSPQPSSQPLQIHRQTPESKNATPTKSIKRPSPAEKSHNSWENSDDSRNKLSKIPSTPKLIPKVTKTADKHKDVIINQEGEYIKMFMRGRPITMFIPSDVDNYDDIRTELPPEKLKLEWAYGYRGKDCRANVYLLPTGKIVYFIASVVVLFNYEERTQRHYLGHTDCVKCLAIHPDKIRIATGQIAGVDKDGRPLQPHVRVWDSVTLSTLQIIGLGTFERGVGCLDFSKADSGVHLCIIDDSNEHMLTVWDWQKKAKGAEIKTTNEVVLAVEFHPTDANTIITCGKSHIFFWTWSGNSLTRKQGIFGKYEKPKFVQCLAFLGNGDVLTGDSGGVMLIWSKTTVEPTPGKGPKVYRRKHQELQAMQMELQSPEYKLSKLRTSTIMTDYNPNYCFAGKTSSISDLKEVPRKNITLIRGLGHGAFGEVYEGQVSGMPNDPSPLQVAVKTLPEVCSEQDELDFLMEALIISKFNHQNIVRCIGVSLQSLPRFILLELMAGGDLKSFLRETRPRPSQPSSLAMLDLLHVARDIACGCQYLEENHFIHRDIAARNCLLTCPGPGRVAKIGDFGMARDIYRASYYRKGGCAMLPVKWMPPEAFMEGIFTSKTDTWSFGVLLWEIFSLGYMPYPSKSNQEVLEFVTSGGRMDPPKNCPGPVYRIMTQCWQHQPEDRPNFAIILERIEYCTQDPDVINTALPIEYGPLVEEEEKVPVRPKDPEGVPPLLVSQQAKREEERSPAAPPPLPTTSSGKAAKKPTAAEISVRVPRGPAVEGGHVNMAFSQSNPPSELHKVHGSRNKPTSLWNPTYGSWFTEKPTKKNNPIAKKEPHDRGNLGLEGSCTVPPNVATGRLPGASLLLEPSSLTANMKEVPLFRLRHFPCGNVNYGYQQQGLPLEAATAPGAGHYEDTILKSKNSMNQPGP
Experimental: ALK-positive SR cells (human large cell immunoblastic lymphoma) were purchased from the American Type Culture Collection (ATCC); H3122 cells (human non-small cell lung cancer) were from the Shanghai University of Science and Technology Lin Haifan's research group.
The cells used in this present disclosure were cultured in a 37° C. incubator containing 5% CO2.
DC50 (drug concentration corresponding to protein degradation to 50%) calculation: according to the gray value of the corresponding Western blotting band after drug treatment, fitting the relationship curve between drug concentration and gray value to calculate the drug concentration range corresponding to half of the gray value.

Row | DC50 (ALK protein) [nM] | Compound | IC50 (SR cells) [nM]
1 | 100 | COc1cc(N2CCN(C(=O)CSc3cccc4c3C(=O)N(C3CCC(=O)NC3=O)C4=O)CC2)ccc1Nc1ncc(Cl)c(Nc2ccccc2P(C)(C)=O)n1 (stereo not shown) [SIAIS1197113, 4-((2-(4-(4-((5-chloro-4-((2-(dimethylphosphoryl)phenyl)amino)pyrimidin-2-yl)amino)-3-methoxyphenyl)piperazin-1-yl)-2-oxoethyl)thio)-2-(2,6-dioxopiperidin-3-yl)isoindoline-1,3-dione] | 23.6 ± 19.4
2 | 500 | COc1cc(N2CCC(NC(=O)CCCCSc3cccc4c3C(=O)N(C3CCC(=O)NC3=O)C4=O)CC2)ccc1Nc1ncc(Cl)c(Nc2ccccc2P(C)(C)=O)n1 (stereo not shown) [SIAIS164140, N-(1-(4-((5-chloro-4-((2-(dimethylphosphoryl)phenyl)amino)pyrimidin-2-yl)amino)-3-methoxyphenyl)piperidin-4-yl)-5-((2-(2,6-dioxopiperidin-3-yl)-1,3-dioxoisoindolin-4-yl)thio)pentanamide] | 8.7 ± 4.9
3 | 500 | COc1cc(N2CCN(C(=O)CCCCCCSc3cccc4c3C(=O)N(C3CCC(=O)NC3=O)C4=O)CC2)ccc1Nc1ncc(Cl)c(Nc2ccccc2P(C)(C)=O)n1 (stereo not shown) [SIAIS1197159, 4-((7-(4-(4-((5-chloro-4-((2-(dimethylphosphoryl)phenyl)amino)pyrimidin-2-yl)amino)-3-methoxyphenyl)piperazin-1-yl)-7-oxoheptyl)thio)-2-(2,6-dioxopiperidin-3-yl)isoindoline-1,3-dione] | 10 ± 5.7
4 | 500 | COc1cc(N2CCC(NC(=O)CSc3cccc4c3C(=O)N(C3CCC(=O)NC3=O)C4=O)CC2)ccc1Nc1ncc(Cl)c(Nc2ccccc2P(C)(C)=O)n1 (stereo not shown) [SIAIS164137, N-(1-(4-((5-chloro-4-((2-(dimethylphosphoryl)phenyl)amino)pyrimidin-2-yl)amino)-3-methoxyphenyl)piperidin-4-yl)-2-((2-(2,6-dioxopiperidin-3-yl)-1,3-dioxoisoindolin-4-yl)thio)acetamide] | 16.8 ± 5.7
5 | 100 | COc1cc(N2CCC(NC(=O)CCSc3cccc4c3C(=O)N(C3CCC(=O)NC3=O)C4=O)CC2)ccc1Nc1ncc(Cl)c(Nc2ccccc2P(C)(C)=O)n1 (stereo not shown) [SIAIS164138, N-(1-(4-((5-chloro-4-((2-(dimethylphosphoryl)phenyl)amino)pyrimidin-2-yl)amino)-3-methoxyphenyl)piperidin-4-yl)-3-((2-(2,6-dioxopiperidin-3-yl)-1,3-dioxoisoindolin-4-yl)thio)propanamide] | 24.1 ± 17.5
6 | 500 | COc1cc(N2CCN(C(=O)CCCCSc3cccc4c3C(=O)N(C3CCC(=O)NC3=O)C4=O)CC2)ccc1Nc1ncc(Cl)c(Nc2ccccc2P(C)(C)=O)n1 (stereo not shown) [SIAIS1197119, 4-((5-(4-(4-((5-chloro-4-((2-(dimethylphosphoryl)phenyl)amino)pyrimidin-2-yl)amino)-3-methoxyphenyl)piperazin-1-yl)-5-oxopentyl)thio)-2-(2,6-dioxopiperidin-3-yl)isoindoline-1,3-dione] | 13.2 ± 2.6
7 | 50 | COc1cc(N2CCC(NC(=O)CCCCCCSc3cccc4c3C(=O)N(C3CCC(=O)NC3=O)C4=O)CC2)ccc1Nc1ncc(Cl)c(Nc2ccccc2P(C)(C)=O)n1 (stereo not shown) [SIAIS164142, N-(1-(4-((5-chloro-4-((2-(dimethylphosphoryl)phenyl)amino)pyrimidin-2-yl)amino)-3-methoxyphenyl)piperidin-4-yl)-7-((2-(2,6-dioxopiperidin-3-yl)-1,3-dioxoisoindolin-4-yl)thio)heptanamide] | 6.4 ± 4
8 | 500 | COc1cc(N2CCN(C(=O)CCCSc3cccc4c3C(=O)N(C3CCC(=O)NC3=O)C4=O)CC2)ccc1Nc1ncc(Cl)c(Nc2ccccc2P(C)(C)=O)n1 (stereo not shown) [SIAIS1197117, 4-((4-(4-(4-((5-chloro-4-((2-(dimethylphosphoryl)phenyl)amino)pyrimidin-2-yl)amino)-3-methoxyphenyl)piperazin-1-yl)-4-oxobutyl)thio)-2-(2,6-dioxopiperidin-3-yl)isoindoline-1,3-dione] | 16.9 ± 12
